From patent publication US20140038920A1, “TFEB PHOSPHORYLATION INHIBITORS AND USES THEREOF” (FONDAZIONE TELETHON, priority 2011, published 2014)

Test system: TFEB
Assay: TFEB nuclear localization in starved HeLa cells overexpressing TFEB, re-stimulated with media plus supplements or inhibitors (nuclear fractionation, Flag blot, immunofluorescence)
Type: cell-based
Conditions: starved cells stimulated with normal medium supplemented with kinase inhibitor (FIG. 2g, 11b)
Source text: (A) Scatter Plot graphs displaying the logarithmic value of the fold change differences in the relative expression levels of 51 autophagy-related genes in HeLa cells cultured in different conditions. X-axis=control group. Y-axis=treated group. Circles represent genes with increased (red) or decreased (green) fold change. Comparisons were as indicated. (B) Chromatin immunoprecipitation (ChIP) analysis. […] Values were normalized to the input and plotted as relative enrichment over a mock control. Experiments were performed in triplicate. (C) qPCR analysis of TFEB-target gene expression in normal, starved, and in TFEB-siRNA starved cells. GAPDH and HPRT represents housekeeping genes, while ATG10, ATG9A and ATG4D represent control genes (non-TFEB target genes). (D-F) HeLa cells stably overexpressing TFEB were left untreated or nutrient starved for 4 h. (D) Five fields containing 50-100 cells/each were analyzed for TFEB nuclear localization. […] (E) Cells were subjected to nuclear/cytosolic fractionation and blotted with Flag antibody. H3 and tubulin were used as nuclear and cytosolic markers, respectively. (F) Nuclear fractions were blotted with Flag and H3 (loading control) antibodies. (G) Western blot analysis of Flag, tubulin and H3 in nuclear extracts prepared from normal, starved and starved/stimulated with normal media cells for 1 h (normal) or pretreated with AP-2 (AKT inhibitor), Rapamycin (mTOR inhibitor) and U0126 (MEK inhibitor) 1 h prior to media stimulation. Total extracts were used to verify the efficiency of the inhibitors. […] Starvation was performed where indicated. (All error bars represent standard deviations. T-test (unpaired) p value (*)<0.05, (**)<0.01)
Cytosolic and nuclear fractions were subjected to Flag immunoblotting. […] Error bars represent standard deviations.
Cells were seeded at 50% of confluence in 6 well dishes and serum starved overnight (ON). Normal medium was added the following day either in presence of DMSO or kinase inhibitors. Subcellular fractionation was carried out as previously reported.
To identify the mechanism of starvation-induced activation of TFEB, the applicants analyzed its subcellular localization and post-translational modifications in starved cells.

SMILES: CO[C@H]1C[C@@H]2CC[C@@H](C)[C@@](O)(O2)C(=O)C(=O)N2CCCC[C@H]2C(=O)O[C@H]([C@H](C)C[C@@H]2CC[C@@H](O)[C@H](OC)C2)CC(=O)[C@H](C)/C=C(\C)[C@@H](O)[C@@H](OC)C(=O)[C@H](C)C[C@H](C)/C=C/C=C/C=C/1C [RAPAMYCIN]
- TFEB nuclear localization: no effect
